Source: the NIST ThermoML archive (doi:10.1021/je201010s)
± gives the expanded uncertainty stated by the source.

Columns and labels:
[1] = refractive index (Na D-line) (dimensionless); wn = mass fraction of the nth substance listed; details: 101 kPa, Liquid, Standard Abbe refractometry
[2] = wn = mass fraction of the nth substance listed; details: 101 kPa, Liquid, Vibrating tube method
[3] = refractive index (Na D-line) (dimensionless); details: 101.33 kPa, Liquid, Standard Abbe refractometry
[4] = 101 kPa, Liquid, Vibrating tube method

CC(C)O [propan-2-ol] + O
298.15 K
Details | mass density, [2] [kg/m3] | refractive index, [1]
w1 = 0.048 | – | 1.3365 ± 0.0012
w1 = 0.0915 | 982.05 ± 1 | –
w1 = 0.0987 | – | 1.3412 ± 0.0012
w1 = 0.1446 | – | 1.3458 ± 0.0012
w1 = 0.2009 | – | 1.3502 ± 0.0012
w1 = 0.2131 | 960.29 ± 1 | –
w1 = 0.241 | – | 1.3536 ± 0.0012
w1 = 0.2951 | – | 1.3569 ± 0.0012
w1 = 0.3299 | 936.93 ± 1 | –
w1 = 0.3387 | – | 1.3597 ± 0.0012
w1 = 0.3921 | – | 1.3622 ± 0.0012
w1 = 0.4412 | – | 1.3645 ± 0.0012
w1 = 0.4795 | 906.69 ± 1 | –
w1 = 0.4805 | – | 1.366 ± 0.0012
w1 = 0.5009 | 901.31 ± 1 | –
w1 = 0.5386 | – | 1.3681 ± 0.0012
w1 = 0.618 | 874.45 ± 1 | –
w1 = 0.6205 | – | 1.3707 ± 0.0012
w1 = 0.6337 | – | 1.3711 ± 0.0012
w1 = 0.6782 | – | 1.3722 ± 0.0012
w1 = 0.684 | 858.73 ± 1 | –
w1 = 0.7452 | – | 1.3737 ± 0.0012
w1 = 0.7861 | – | 1.3744 ± 0.0012
w1 = 0.7874 | 834.01 ± 1 | –
w1 = 0.8541 | – | 1.3752 ± 0.0012
w1 = 0.8788 | 811.99 ± 1 | –
w1 = 0.8959 | – | 1.3756 ± 0.0012
w1 = 0.8976 | 807.44 ± 1 | –
w1 = 0.9154 | 803.01 ± 1 | –
w1 = 0.9311 | 799.05 ± 1 | –
w1 = 0.9492 | – | 1.3756 ± 0.0012
w1 = 0.9502 | 794.22 ± 1 | –
w1 = 0.9752 | 787.71 ± 1 | –
w1 = 0.9895 | 783.8 ± 1 | –
w1 = 1 | 780.82 ± 1 | 1.3751 ± 0.0012

O [water] + CC(C)O
Details | refractive index
[1], 298.15 K, w2 = 0 | 1.3325 ± 0.0012

CCCCn1cc[n+](C)c1.F[B-](F)(F)F [1-butyl-3-methylimidazolium tetrafluoroborate]
Details | mass density, [4] [kg/m3] | refractive index, [3]
298.15 K | 1202.87 ± 1.8 | 1.422 ± 0.0013
323.15 K | 1185.11 ± 6 | 1.4155 ± 0.002

CCCCn1cc[n+](C)c1.F[B-](F)(F)F [1-butyl-3-methylimidazolium tetrafluoroborate] + CC(C)O
323.15 K
Details | mass density, [2] [kg/m3] | refractive index, [1]
w2 = 0 | 1185.11 ± 6 | 1.4155 ± 0.002
w2 = 0.0089 | 1180.38 ± 6 | 1.4152 ± 0.002
w2 = 0.0287 | 1170.07 ± 6 | 1.4143 ± 0.002
w2 = 0.0624 | 1147.36 ± 6 | 1.4122 ± 0.002
w2 = 0.1053 | 1122.14 ± 6 | 1.4106 ± 0.002
w2 = 0.1649 | 1091.32 ± 6 | 1.4077 ± 0.002
w2 = 0.2183 | 1061.8 ± 6 | 1.4071 ± 0.002
w2 = 0.2719 | 1031.58 ± 6 | 1.406 ± 0.002
w2 = 0.324 | 1012 ± 6 | 1.403 ± 0.002
w2 = 0.4108 | 973.34 ± 6 | 1.3989 ± 0.002
w2 = 0.5167 | 927.14 ± 6 | 1.3948 ± 0.002
w2 = 0.5965 | 901.85 ± 6 | 1.391 ± 0.002
w2 = 0.6194 | 888.84 ± 6 | 1.3904 ± 0.002
w2 = 0.7697 | 835.46 ± 6 | 1.3817 ± 0.002
w2 = 0.8372 | 809.26 ± 6 | 1.3749 ± 0.002
w2 = 0.9344 | 778.75 ± 6 | 1.3668 ± 0.002

CC(C)O [propan-2-ol]
Details | mass density, [4] [kg/m3] | refractive index, [3]
298.15 K | 780.82 ± 1 | 1.3751 ± 0.0012
323.15 K | 758.67 ± 6 | 1.3604 ± 0.002

CCCCn1cc[n+](C)c1.F[B-](F)(F)F [1-butyl-3-methylimidazolium tetrafluoroborate] + O
298.15 K
Details | mass density, [2] [kg/m3] | refractive index, [1]
w2 = 0 | 1202.87 ± 1.8 | 1.422 ± 0.0013
w2 = 0.0098 | 1199.53 ± 1.8 | 1.4206 ± 0.0013
w2 = 0.0167 | 1196.97 ± 1.8 | 1.4194 ± 0.0013
w2 = 0.0205 | 1195.79 ± 1.8 | 1.4191 ± 0.0013
w2 = 0.029 | 1193.14 ± 1.8 | 1.418 ± 0.0013
w2 = 0.0396 | 1189.89 ± 1.8 | 1.4169 ± 0.0013
w2 = 0.0585 | 1184.23 ± 1.8 | 1.4141 ± 0.0013
w2 = 0.0982 | 1173.48 ± 1.8 | 1.4094 ± 0.0013
w2 = 0.154 | 1159.29 ± 1.8 | 1.4033 ± 0.0013
w2 = 0.2046 | 1147.24 ± 1.8 | 1.398 ± 0.0013
w2 = 0.2517 | 1136.64 ± 1.8 | 1.3934 ± 0.0012
w2 = 0.3043 | 1125.12 ± 1.8 | 1.3883 ± 0.0012
w2 = 0.3966 | 1106.01 ± 1.8 | 1.3801 ± 0.0012
w2 = 0.5061 | 1084.29 ± 1.8 | 1.3705 ± 0.0012
w2 = 0.6986 | 1048.69 ± 1.8 | 1.3549 ± 0.0012
w2 = 0.8897 | 1015.75 ± 1.8 | 1.3406 ± 0.0012

O [water] + CCCCn1cc[n+](C)c1.F[B-](F)(F)F
Details | refractive index
[1], 298.15 K, w1 = 1 | 1.3325 ± 0.0012

CC(C)O [propan-2-ol] + CCCCn1cc[n+](C)c1.F[B-](F)(F)F
323.15 K, w1 = 1
Details | mass density [kg/m3] | refractive index
[1] | – | 1.3604 ± 0.002
[2] | 758.67 ± 6 | –

O [water]
Details | refractive index
[3], 298.15 K | 1.3325 ± 0.0012
